ChEMBL document CHEMBL5528082 (J Med Chem, 2024)
≈ marks a conversion by molar mass, not a printed value.

What was measured:
Staphylococcus aureus [1] = assay: Antibacterial activity against Staphylococcus aureus ATCC 25923 incubated for 24 hrs by CLSI based broth microdilution assay; format: functional
Staphylococcus aureus [2] = assay: Antibacterial activity against Staphylococcus aureus USA 300 incubated for 24 hrs by CLSI based broth microdilution assay; format: functional
Staphylococcus aureus [3] = assay: Antibacterial activity against TMP-resistant Staphylococcus aureus BHKS 227 incubated for 24 hrs by CLSI based broth microdilution assay; format: functional
Staphylococcus aureus [4] = assay: Antibacterial activity against TMP-resistant Staphylococcus aureus BHKS 721 incubated for 24 hrs by CLSI based broth microdilution assay; format: functional
Staphylococcus aureus [5] = assay: Antibacterial activity against TMP-resistant Staphylococcus aureus BHKS 723 incubated for 24 hrs by CLSI based broth microdilution assay; format: functional
[6] = Cytotoxicity against HEK293 cells assessed as inhibition rate of cell growth at 100 uM incubated for 24 hrs by CCK8 assay relative to control; format: toxicity, cell-based; details: human
[7] = Cytotoxicity against human NCM460 cells assessed as inhibition rate of cell growth at 100 uM incubated for 24 hrs by CCK8 assay relative to control; format: toxicity, cell-based
Dihydrofolate reductase = Dihydrofolate reductase (Staphylococcus aureus, UniProt P0A017); assay: Inhibition of Staphylococcus aureus DHFR expressed in Escherichia coli BL21 (DE3) using DHF as substrate preincubated for 10 mins followed by substrate addition measured for 10 mins in presence of NADPH by spectrophotometry
Dihydrofolate reductase, sequence (P0A017 whole entry): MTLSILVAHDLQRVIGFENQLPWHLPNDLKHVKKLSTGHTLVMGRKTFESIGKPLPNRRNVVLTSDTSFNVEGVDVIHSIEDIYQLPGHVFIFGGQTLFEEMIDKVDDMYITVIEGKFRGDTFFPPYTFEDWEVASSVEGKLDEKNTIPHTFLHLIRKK

[8] = test system: Dihydrofolate reductase (Staphylococcus aureus); details: dose 100.0 nM

Structure (SMILES)	MIC (Staphylococcus aureus [1])	MIC (Staphylococcus aureus [2])	MIC (Staphylococcus aureus [3])	MIC (Staphylococcus aureus [4])	MIC (Staphylococcus aureus [5])	inhibition at 24 h, 100 µM [6]	inhibition at 24 h, 100 µM [7]	IC50 (Dihydrofolate reductase)	inhibition [8]
CCCOc1cc(C(C)C)c(Oc2cnc(N)nc2N)cc1I	0.016 µg/mL (≈ 0.0374 µM)	0.016 µg/mL (≈ 0.0374 µM)	0.5 µg/mL (≈ 1.17 µM)	> 32 µg/mL	> 32 µg/mL	47.4%	66.7%	45 nM	43.8%
CC(C)c1cc(OCC2CCCC2)c(I)cc1Oc1cnc(N)nc1N	0.125 µg/mL (≈ 0.267 µM)	0.125 µg/mL (≈ 0.267 µM)	2 µg/mL (≈ 4.27 µM)	8 µg/mL (≈ 17.1 µM)	4 µg/mL (≈ 8.54 µM)	64%	35.2%	10.2 nM	76.4%
CCc1cc(Oc2cnc(N)nc2N)c(C(C)C)cc1OC	0.25 µg/mL (≈ 0.827 µM)	0.125 µg/mL (≈ 0.413 µM)	2 µg/mL (≈ 6.61 µM)	16 µg/mL (≈ 52.9 µM)	16 µg/mL (≈ 52.9 µM)	38.8%	8.5%	24.7 nM	
COc1cc(C(C)C)c(Oc2cnc(N)nc2N)cc1-c1cccc(C(F)(F)F)c1	1 µg/mL (≈ 2.39 µM)	1 µg/mL (≈ 2.39 µM)	4 µg/mL (≈ 9.56 µM)	16 µg/mL (≈ 38.2 µM)	16 µg/mL (≈ 38.2 µM)	51.5%	74.6%	239 nM	82.9%
COc1cc(C(C)C)c(Oc2cnc(N)nc2N)cc1-c1ccc(OC(F)(F)F)cc1	0.25 µg/mL (≈ 0.575 µM)	0.25 µg/mL (≈ 0.575 µM)	1 µg/mL (≈ 2.3 µM)	8 µg/mL (≈ 18.4 µM)	8 µg/mL (≈ 18.4 µM)	43.5%	63.6%	19.1 nM	> 100%
CCCCOc1cc(C(C)C)c(Oc2cnc(N)nc2N)cc1I	0.125 µg/mL (≈ 0.283 µM)	0.125 µg/mL (≈ 0.283 µM)	1 µg/mL (≈ 2.26 µM)	4 µg/mL (≈ 9.04 µM)	8 µg/mL (≈ 18.1 µM)	42.2%	72.9%	36.7 nM	50.8%
COc1cc(C(C)C)c(Oc2cnc(N)nc2N)cc1C1CC1	1 µg/mL (≈ 3.18 µM)	0.5 µg/mL (≈ 1.59 µM)	4 µg/mL (≈ 12.7 µM)	16 µg/mL (≈ 50.9 µM)	32 µg/mL (≈ 102 µM)	0.06%	4.06%	27.8 nM	35.3%
COc1cc(C(C)C)c(Oc2cnc(N)nc2N)cc1-c1ccc2ccccc2c1	0.5 µg/mL (≈ 1.25 µM)	0.25 µg/mL (≈ 0.624 µM)	1 µg/mL (≈ 2.5 µM)	> 32 µg/mL	> 32 µg/mL	13.5%	67.6%	148 nM	80.8%
COc1ccc(Oc2cnc(N)nc2N)cc1-c1ccc(C(F)(F)F)cc1	0.031 µg/mL (≈ 0.0824 µM)	0.016 µg/mL (≈ 0.0425 µM)	4 µg/mL (≈ 10.6 µM)	4 µg/mL (≈ 10.6 µM)	4 µg/mL (≈ 10.6 µM)	42.3%	68.3%	8.29 nM	> 100%
CC(C)c1cc(OCC2CCC2)c(I)cc1Oc1cnc(N)nc1N	0.125 µg/mL (≈ 0.275 µM)	0.125 µg/mL (≈ 0.275 µM)	1 µg/mL (≈ 2.2 µM)	4 µg/mL (≈ 8.8 µM)	4 µg/mL (≈ 8.8 µM)	57.9%	13.2%	7.69 nM	61.3%
COc1cc(C(C)C)c(Oc2cnc(N)nc2N)cc1CC(C)C	0.5 µg/mL (≈ 1.51 µM)	0.5 µg/mL (≈ 1.51 µM)	4 µg/mL (≈ 12.1 µM)	16 µg/mL (≈ 48.4 µM)	16 µg/mL (≈ 48.4 µM)	57.8%	67.4%	24.2 nM	> 100%
COc1cc(C(C)C)c(Oc2cnc(N)nc2N)cc1-c1ccc(C)cc1	0.5 µg/mL (≈ 1.37 µM)	0.5 µg/mL (≈ 1.37 µM)	2 µg/mL (≈ 5.49 µM)	16 µg/mL (≈ 43.9 µM)	16 µg/mL (≈ 43.9 µM)	2.04%	55.5%	38.7 nM	9.88%
COc1cc(C(C)C)c(Oc2cnc(N)nc2N)cc1-c1ccc2c(c1)OCO2	0.5 µg/mL (≈ 1.27 µM)	0.25 µg/mL (≈ 0.634 µM)	2 µg/mL (≈ 5.07 µM)	32 µg/mL (≈ 81.1 µM)	16 µg/mL (≈ 40.6 µM)	26.8%	62.3%	34.8 nM	> 100%
CC(C)c1cc(OCC2CC2)c(-c2cc(Cl)cc(Cl)c2)cc1Oc1cnc(N)nc1N	0.5 µg/mL (≈ 1.09 µM)	0.5 µg/mL (≈ 1.09 µM)	2 µg/mL (≈ 4.35 µM)	2 µg/mL (≈ 4.35 µM)	4 µg/mL (≈ 8.71 µM)	27.5%	35.8%		89.2%
COc1cc(C(C)C)c(Oc2cnc(N)nc2N)cc1C	1 µg/mL (≈ 3.47 µM)	1 µg/mL (≈ 3.47 µM)	4 µg/mL (≈ 13.9 µM)	16 µg/mL (≈ 55.5 µM)	32 µg/mL (≈ 111 µM)	15.6%	57.3%		65.9%
CCOc1cc(C(C)C)c(Oc2cnc(N)nc2N)cc1I	0.016 µg/mL (≈ 0.0386 µM)	0.016 µg/mL (≈ 0.0386 µM)	0.25 µg/mL (≈ 0.604 µM)	4 µg/mL (≈ 9.66 µM)	4 µg/mL (≈ 9.66 µM)	57.9%	13.9%		42.6%

Structure (SMILES)	MIC (Staphylococcus aureus [1])	MIC (Staphylococcus aureus [2])	MIC (Staphylococcus aureus [3])	MIC (Staphylococcus aureus [4])	MIC (Staphylococcus aureus [5])	inhibition at 24 h, 100 µM [6]	inhibition at 24 h, 100 µM [7]	IC50 (Dihydrofolate reductase)	inhibition [8]
COc1cc(C(C)C)c(Oc2cnc(N)nc2N)cc1-c1ccc(C(F)(F)F)c(Cl)c1	1 µg/mL (≈ 2.21 µM)	2 µg/mL (≈ 4.42 µM)	4 µg/mL (≈ 8.83 µM)	4 µg/mL (≈ 8.83 µM)	4 µg/mL (≈ 8.83 µM)	42.1%	41.9%		65.7%
CC(C)c1cc(O)c(I)cc1Oc1cnc(N)nc1N	0.125 µg/mL (≈ 0.324 µM)	0.125 µg/mL (≈ 0.324 µM)	0.5 µg/mL (≈ 1.29 µM)	4 µg/mL (≈ 10.4 µM)	4 µg/mL (≈ 10.4 µM)	30.1%	3%		61.7%
COc1cc(C(C)C)c(Oc2cnc(N)nc2N)cc1-c1ccc(O)cc1	0.125 µg/mL (≈ 0.341 µM)	0.063 µg/mL (≈ 0.172 µM)	0.5 µg/mL (≈ 1.36 µM)	1 µg/mL (≈ 2.73 µM)	8 µg/mL (≈ 21.8 µM)	22.9%	53.1%		72.3%
CC(C)c1cc(OCC2CC2)c(-c2ccc(OC(F)(F)F)cc2)cc1Oc1cnc(N)nc1N	0.5 µg/mL (≈ 1.05 µM)	0.5 µg/mL (≈ 1.05 µM)	4 µg/mL (≈ 8.43 µM)	2 µg/mL (≈ 4.22 µM)	4 µg/mL (≈ 8.43 µM)	22.9%	31.3%		78.9%
COc1cc(C(C)C)c(Oc2cnc(N)nc2N)cc1-c1cc(C(F)(F)F)cc(C(F)(F)F)c1	4 µg/mL (≈ 8.22 µM)	8 µg/mL (≈ 16.4 µM)	8 µg/mL (≈ 16.4 µM)	8 µg/mL (≈ 16.4 µM)	8 µg/mL (≈ 16.4 µM)	38.6%	64.2%		> 100%
CCC(C)Oc1cc(C(C)C)c(Oc2cnc(N)nc2N)cc1I (stereo not drawn)	0.016 µg/mL (≈ 0.0362 µM)	0.016 µg/mL (≈ 0.0362 µM)	1 µg/mL (≈ 2.26 µM)	4 µg/mL (≈ 9.04 µM)	4 µg/mL (≈ 9.04 µM)	44.6%	70.7%		50.8%
CCC(C)c1cc(OC)c(I)cc1Oc1cnc(N)nc1N (stereo not drawn)	0.125 µg/mL (≈ 0.302 µM)	0.125 µg/mL (≈ 0.302 µM)	1 µg/mL (≈ 2.41 µM)	8 µg/mL (≈ 19.3 µM)	16 µg/mL (≈ 38.6 µM)	28.5%	62.7%		56.3%
CCc1cc(Oc2cnc(N)nc2N)c(C(C)CC)cc1OC (stereo not drawn)	1 µg/mL (≈ 3.16 µM)	1 µg/mL (≈ 3.16 µM)	4 µg/mL (≈ 12.6 µM)	16 µg/mL (≈ 50.6 µM)	32 µg/mL (≈ 101 µM)	23.2%	48.4%		4.32%
COc1cc(C(C)C)c(Oc2cnc(NC(C)=O)nc2NC(C)=O)cc1I	> 32 µg/mL	> 32 µg/mL	> 32 µg/mL	> 32 µg/mL	> 32 µg/mL	26.7%	18.2%		32.6%
COc1cc(C(C)C)c(Oc2cnc(N)nc2N)cc1-c1ccc(-c2ccccc2)cc1	0.5 µg/mL (≈ 1.17 µM)	0.5 µg/mL (≈ 1.17 µM)	2 µg/mL (≈ 4.69 µM)	4 µg/mL (≈ 9.38 µM)	4 µg/mL (≈ 9.38 µM)	31.5%	66%		26.8%
COc1cc(OC)cc(-c2cc(Oc3cnc(N)nc3N)c(C(C)C)cc2OC)c1	2 µg/mL (≈ 4.87 µM)	2 µg/mL (≈ 4.87 µM)	8 µg/mL (≈ 19.5 µM)	32 µg/mL (≈ 78 µM)	32 µg/mL (≈ 78 µM)	29.7%	66.8%		40.5%
CCCCOc1cc(C(C)C)c(Oc2cnc(N)nc2N)cc1-c1ccc(C(C)C)cc1	1 µg/mL (≈ 2.3 µM)	2 µg/mL (≈ 4.6 µM)	8 µg/mL (≈ 18.4 µM)	4 µg/mL (≈ 9.2 µM)	2 µg/mL (≈ 4.6 µM)	46.6%	40.9%		64%
CCCCOc1cc(C(C)C)c(Oc2cnc(N)nc2N)cc1-c1ccc(C(F)(F)F)cc1	2 µg/mL (≈ 4.34 µM)	4 µg/mL (≈ 8.69 µM)	4 µg/mL (≈ 8.69 µM)	4 µg/mL (≈ 8.69 µM)	4 µg/mL (≈ 8.69 µM)	40.2%	42.3%		90.9%
COc1cc(C(C)C)c(Oc2cnc(N)nc2N)cc1-c1ccc(Cl)c(Cl)c1	0.5 µg/mL (≈ 1.19 µM)	3 µg/mL (≈ 7.15 µM)	2 µg/mL (≈ 4.77 µM)	8 µg/mL (≈ 19.1 µM)	8 µg/mL (≈ 19.1 µM)	41%	34.1%		60.8%
CC(C)c1cc(OCCc2ccccc2)c(I)cc1Oc1cnc(N)nc1N	0.125 µg/mL (≈ 0.255 µM)	0.125 µg/mL (≈ 0.255 µM)	2 µg/mL (≈ 4.08 µM)	4 µg/mL (≈ 8.16 µM)	4 µg/mL (≈ 8.16 µM)	62%	33.7%		76.4%
COc1cc(C(C)C)c(Oc2cnc(N)nc2N)cc1-c1ccccc1Cl	4 µg/mL (≈ 10.4 µM)	4 µg/mL (≈ 10.4 µM)	16 µg/mL (≈ 41.6 µM)	32 µg/mL (≈ 83.1 µM)	32 µg/mL (≈ 83.1 µM)	37.8%	29%		74.3%
